Earlier results as cited in US20110046156A1, “TREATMENT OF HEARING AND BALANCE IMPAIRMENTS WITH REDOX-ACTIVE THERAPEUTICS” (priority 2009, published 2011).

- patients displaying some vestibular impairment (2 grams daily for 60 to 120 days): ~75%
SMILES: [H]/N=C(/N)N[C@H]1[C@H](O)[C@@H](O)[C@H](O[C@@H]2O[C@@H](C)[C@](O)(C=O)[C@H]2O[C@@H]2O[C@@H](CO)[C@H](O)[C@@H](O)[C@@H]2NC)[C@@H](N/C(N)=N\[H])[C@@H]1O [streptomycin]
- incidence of vestibular impairment (1 gram per day): 25%
